From patent publication US6204282A, “Benzimidazole compounds that are vitronectin receptor antagonists” (Schering Corporation, priority 1999, dated 2001)

target: αllbβ3 receptor (Homo sapiens, UniProt P05106+P08514); assay: similar competitive assay with purified αllbβ3 receptor and 125I-echistatin (specificity index versus αvβ3); assay type: binding; details: IC50 αllbβ3 / IC50 αvβ3
Text: The specificity index, which is a measure of the relative binding affinity for αvβ3 versus αllbβ3, may be determined by dividing the IC50 value for αllbβ3by the IC50 value for αvβ3.

Sequence of αllbβ3 receptor (P08514 32-1039): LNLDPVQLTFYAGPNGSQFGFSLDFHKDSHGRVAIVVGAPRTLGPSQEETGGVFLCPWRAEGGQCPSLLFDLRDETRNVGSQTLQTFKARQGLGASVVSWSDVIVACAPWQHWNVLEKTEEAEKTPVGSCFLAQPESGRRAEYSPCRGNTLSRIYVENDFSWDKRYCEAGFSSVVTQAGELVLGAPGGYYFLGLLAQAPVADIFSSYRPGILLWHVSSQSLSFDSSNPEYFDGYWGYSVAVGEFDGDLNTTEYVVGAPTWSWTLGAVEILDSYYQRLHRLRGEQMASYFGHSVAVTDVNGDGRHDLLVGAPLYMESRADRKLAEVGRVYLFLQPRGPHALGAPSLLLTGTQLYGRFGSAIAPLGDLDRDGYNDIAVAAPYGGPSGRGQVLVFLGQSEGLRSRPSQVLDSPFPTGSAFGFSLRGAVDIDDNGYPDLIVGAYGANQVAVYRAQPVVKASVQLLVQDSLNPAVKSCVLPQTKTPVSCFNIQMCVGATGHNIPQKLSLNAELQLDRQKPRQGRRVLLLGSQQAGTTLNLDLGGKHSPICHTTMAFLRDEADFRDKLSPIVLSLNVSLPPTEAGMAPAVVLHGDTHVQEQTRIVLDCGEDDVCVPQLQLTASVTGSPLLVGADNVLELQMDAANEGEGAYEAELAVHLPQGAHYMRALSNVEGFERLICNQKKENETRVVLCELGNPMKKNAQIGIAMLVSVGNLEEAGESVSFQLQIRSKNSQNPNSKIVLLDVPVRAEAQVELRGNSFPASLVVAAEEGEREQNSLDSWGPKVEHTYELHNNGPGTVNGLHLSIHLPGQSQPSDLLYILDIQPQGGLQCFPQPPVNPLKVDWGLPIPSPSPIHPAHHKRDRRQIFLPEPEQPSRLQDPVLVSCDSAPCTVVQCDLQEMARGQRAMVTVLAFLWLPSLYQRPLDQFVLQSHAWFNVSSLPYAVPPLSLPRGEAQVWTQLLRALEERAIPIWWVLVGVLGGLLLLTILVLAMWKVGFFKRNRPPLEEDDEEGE
Sequence of αllbβ3 receptor (P05106 27-788): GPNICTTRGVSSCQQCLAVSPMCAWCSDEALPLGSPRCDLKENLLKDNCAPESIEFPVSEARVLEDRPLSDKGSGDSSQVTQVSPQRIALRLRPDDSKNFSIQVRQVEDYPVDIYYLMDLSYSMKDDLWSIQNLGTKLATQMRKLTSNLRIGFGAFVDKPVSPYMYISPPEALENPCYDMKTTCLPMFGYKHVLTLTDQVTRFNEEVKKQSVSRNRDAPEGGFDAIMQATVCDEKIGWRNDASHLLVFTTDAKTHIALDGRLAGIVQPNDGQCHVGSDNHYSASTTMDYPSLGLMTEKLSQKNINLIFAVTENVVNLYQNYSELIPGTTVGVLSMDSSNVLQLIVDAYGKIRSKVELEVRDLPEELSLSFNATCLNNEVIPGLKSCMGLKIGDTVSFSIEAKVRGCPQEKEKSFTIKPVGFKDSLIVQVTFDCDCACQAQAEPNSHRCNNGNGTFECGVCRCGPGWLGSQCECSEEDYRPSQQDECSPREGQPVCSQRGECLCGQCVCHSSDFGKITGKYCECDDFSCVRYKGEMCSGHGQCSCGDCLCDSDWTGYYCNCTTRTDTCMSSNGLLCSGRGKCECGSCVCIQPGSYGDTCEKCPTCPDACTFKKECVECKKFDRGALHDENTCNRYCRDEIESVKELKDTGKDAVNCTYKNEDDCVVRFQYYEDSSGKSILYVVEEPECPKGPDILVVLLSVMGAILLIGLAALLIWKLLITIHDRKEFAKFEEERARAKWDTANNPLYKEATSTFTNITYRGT

Row | SMILES | SPECIFICITY αIIb β3/αvβ3 (specificity index)
1 | O=C(N[C@@H](CNC(=O)c1ccc(CN(Cc2nc3ccccc3[nH]2)C(=O)Nc2ccc(Cl)cc2)cc1)C(=O)O)OCc1ccccc1 [Example 5-35] | 240
2 | CC(C)(C)OC(=O)N[C@@H](CNC(=O)c1ccc(CN(Cc2nc3ccccc3[nH]2)C(=O)CCC2CCCC2)cc1)C(=O)O [Example 5-64] | 499
3 | O=C(N[C@@H](CNC(=O)c1ccc(CN(Cc2nc3ccccc3[nH]2)C(=O)NS(=O)(=O)c2ccc(Cl)cc2)cc1)C(=O)O)OCc1ccccc1 [Example 5-44] | 66.3
4 | O=C(N[C@@H](CNC(=O)c1ccc(CN(Cc2nc3ccccc3[nH]2)C(=O)NC2CCCCC2)cc1)C(=O)O)OCc1ccccc1 [Example 5-28] | 1136
5 | CSCC(=O)N(Cc1ccc(C(=O)NC[C@H](NC(=O)OCc2ccccc2)C(=O)O)cc1)Cc1nc2ccccc2[nH]1 [Example 5-23] | 22
6 | COCC(=O)N(CCc1nc2ccccc2[nH]1)Cc1ccc(C(=O)NCC(NC(=O)OCc2ccccc2)C(=O)O)cc1 (centres unmarked) [Example 5-72] | 0.5
7 | CC(C)NC(=O)N(Cc1ccc(C(=O)NC[C@H](NC(=O)OCc2ccccc2)C(=O)O)cc1)Cc1nc2cc(Cl)ccc2[nH]1 [Example 5-95] | 775
8 | O=C(O)CC(NC(=O)c1ccc(CNCc2nc3ccccc3[nH]2)cc1)c1ccccc1 (centres unmarked) [Example 5-65] | 0.4
9 | O=C(N[C@@H](CNC(=O)c1ccc(CN(Cc2nc3ccccc3[nH]2)C(=O)C2CC2c2ccccc2)cc1)C(=O)O)OCc1ccccc1 (some centres unmarked) [Example 5-22] | 26
10 | CCCCOC(=O)N[C@@H](CNC(=O)c1ccc(CN(Cc2nc3ccccc3[nH]2)C(=O)N[C@@H](C)C(=O)OCC)cc1)C(=O)O [Example 5-89] | 1094
11 | CC(C)NC(=O)N(Cc1ccc(C(=O)NC[C@H](NC(=O)OCc2ccccc2)C(=O)O)cc1)Cc1nc2ccccc2n1C [Example 5-93] | 124
12 | COc1ccc(OC(=O)N(Cc2ccc(C(=O)NC[C@H](NC(=O)OCc3ccccc3)C(=O)O)cc2)Cc2nc3ccccc3[nH]2)cc1 [Example 5-21] | 41
13 | CCCCOC(=O)N[C@@H](CNC(=O)c1ccc(CN(Cc2nc3ccccc3[nH]2)C(=O)NCC(=O)OCC)cc1)C(=O)O [Example 5-86, N^3-[4-[(benzimnidazol-2-yl)methyl][[(ethoxycarbonylmethyl)amino]-carbonyl]aminomethylbenzoyl]-N^2-(n-butoxycarbonyl)-L-2,3-diaminopropionic acid] | 793
14 | CC(C)(C)NC(=O)N(Cc1ccc(C(=O)NC[C@H](NC(=O)OCc2ccccc2)C(=O)O)cc1)Cc1nc2ccccc2[nH]1 [Example 5-34] | 421
15 | COCCNC(=S)N(Cc1ccc(C(=O)NC[C@H](NC(=O)OCc2ccccc2)C(=O)O)cc1)Cc1nc2ccccc2[nH]1 [Example 5-56] | 514
16 | CCOC(=O)[C@H](CCSC)NC(=O)N(Cc1ccc(C(=O)NC[C@H](NC(=O)OCc2ccccc2)C(=O)O)cc1)Cc1nc2ccccc2[nH]1 [Example 5-48] | 2028
17 | O=C(N[C@@H](CNC(=O)c1ccc(CN(Cc2nc3ccccc3[nH]2)C(=O)CCc2ccccc2)cc1)C(=O)O)OCc1ccccc1 [Example 5-16] | 899
18 | CN(Cc1ccc(C(=O)NC[C@H](NC(=O)OCc2ccccc2)C(=O)O)cc1)Cc1nc2ccccc2[nH]1 [Example 5-33] | 128
19 | O=C(NC[C@H](NS(=O)(=O)c1ccccc1)C(=O)O)c1ccc(CN(Cc2nc3ccccc3[nH]2)C(=O)NC2CCCCC2)cc1 [Example 5-81] | 8.0

Row | SMILES | SPECIFICITY αIIb β3/αvβ3 (specificity index)
20 | CC(=O)N(Cc1ccc(C(=O)NC[C@H](NC(=O)OCc2ccccc2)C(=O)O)cc1)C(C)c1nc2ccccc2[nH]1 (some centres unmarked) [Example 5-76] | 6.7
21 | COCC(=O)N(Cc1ccc(C(=O)NC[C@H](NC(=O)OC(C)(C)C)C(=O)O)cc1)Cc1nc2ccccc2[nH]1 [Example 5-62] | 419
22 | COCC(=O)N(Cc1ccc(C(=O)NC[C@H](NS(=O)(=O)c2ccccc2)C(=O)O)cc1)Cc1nc2ccccc2[nH]1 [Example 5-80] | 11
23 | COCCC(=O)N(Cc1ccc(C(=O)NC[C@H](NC(=O)OCc2ccccc2)C(=O)O)cc1)Cc1nc2ccccc2[nH]1 [Example 5-25] | 52
24 | CCOc1ccc(NC(=O)N(Cc2ccc(C(=O)NC[C@H](NC(=O)OCc3ccccc3)C(=O)O)cc2)Cc2nc3ccccc3[nH]2)cc1 [Example 5-32] | 151
25 | O=C(N[C@@H](CNC(=O)c1ccc(CN(Cc2nc3ccccc3[nH]2)C(=O)N2CCOCC2)cc1)C(=O)O)OCc1ccccc1 [Example 5-42] | 39
26 | CCOC(=O)[C@@H](NC(=O)N(Cc1ccc(C(=O)NC[C@H](NC(=O)OCc2ccccc2)C(=O)O)cc1)Cc1nc2ccccc2[nH]1)C(C)C [Example 5-51] | 1210
27 | COCC(=O)N(Cc1ccc(C(=O)NC[C@@H](NC(=O)OCc2ccccc2)C(=O)O)cc1)Cc1nc2ccccc2[nH]1 [Example 5-58] | 46
28 | CCCCOC(=O)N[C@@H](CNC(=O)c1ccc(CN(Cc2nc3ccccc3[nH]2)C(=O)N[C@H](C(=O)OCC)C(C)C)cc1)C(=O)O [Example 5-90] | 1697
29 | CCCCOC(=O)N[C@@H](CNC(=O)c1ccc(CN(Cc2nc3ccccc3[nH]2)C(=O)Nc2ccc(C(=O)OCC)cc2)cc1)C(=O)O [Example 5-91] | 1183
30 | CC(c1nc2ccccc2[nH]1)N(Cc1ccc(C(=O)NC[C@H](NC(=O)OCc2ccccc2)C(=O)O)cc1)C(=O)CCc1ccccc1 (some centres unmarked) [Example 5-78] | 33.9
31 | CC(NC(=O)N(Cc1ccc(C(=O)NC[C@H](NC(=O)OCc2ccccc2)C(=O)O)cc1)Cc1nc2ccccc2[nH]1)c1cccc2ccccc12 (some centres unmarked) [Example 5-36] | 129
32 | O=C(N[C@@H](CNC(=O)c1ccc(CN(Cc2nc3ccccc3[nH]2)C(=O)CCC2CCCC2)cc1)C(=O)O)OCc1ccccc1 [Example 5-14] | 117
33 | O=C(N[C@@H](CNC(=O)c1ccc(CN(Cc2nc3ccccc3[nH]2)C(=O)Nc2ccc(-c3ccccc3)cc2)cc1)C(=O)O)OCc1ccccc1 [Example 5-38] | 49
34 | CCOC(=O)[C@H](CC(C)C)NC(=O)N(Cc1ccc(C(=O)NC[C@H](NC(=O)OCc2ccccc2)C(=O)O)cc1)Cc1nc2ccccc2[nH]1 [Example 5-53] | 483
35 | CC(C)(C)OC(=O)N[C@@H](CNC(=O)c1ccc(CNCc2nc3ccccc3[nH]2)cc1)C(=O)O [Example 5-60] | 90
36 | O=C(N[C@@H](CNC(=O)c1ccc(CN(Cc2nc3ccccc3[nH]2)C(=O)Nc2ccc(F)cc2)cc1)C(=O)O)OCc1ccccc1 [Example 5-49] | 504
37 | CCCCOC(=O)N[C@@H](CNC(=O)c1ccc(CN(Cc2nc3ccccc3[nH]2)C(=O)Nc2ccc(F)cc2)cc1)C(=O)O [Example 5-88] | 1657
38 | CCCCOC(=O)N[C@@H](CNC(=O)c1ccc(CN(Cc2nc3ccccc3[nH]2)C(=O)NC2CCCCC2)cc1)C(=O)O [Example 5-82] | 1259
